Reference: PMC6345774, “Kinetic and thermodynamic effects of phosphorylation on p53 binding to MDM2” (Scientific Reports, 2019)

Key:
[1] = target: T1, human MDM2 (residues 2–125) (Homo sapiens, UniProt Q00987); test: Isothermal titration calorimetry of p53-peptide binding to MDM2; conditions: ITC, 15 °C, 50 mM Tris-HCl pH 8.0, 250 mM NaCl, 0.5 mM TCEP; for ΔH of binding / Kd: peptide titrated into MDM2; for ΔH of binding: repeated twice; for Kd: read-out: Log KA (converted)
T1 construct: human MDM2 (residues 2–125); made in house; host or cells: E. coli BL21 (DE3)
Description: Protein concentration was determined from the absorbance of its seven Tyr residues.
Peptide binding to MDM2 was measured by using an Auto-iTC200 (Malvern Instruments, Malvern UK), as described[24],[37]. Data acquisition was carried out with a reference power of 10 µcal/s, initial delay of 60 s, spacing between injections of 150 s. In a typical ITC experiment, the p53 peptide was loaded into a 40 μl syringe and the protein was placed into the sample cell. The sequence of injections consisted of one 0.5 μl injection followed by 19 injections of 2 μl each. Control experiments loading peptide into buffer solution were also carried out for each peptide. Experiments were performed with freshly prepared protein solutions, at 15 °C in the same buffer used in fluorescence experiments. ITC experiments were performed at 15 °C rather than 25 °C to avoid aggregation of MDM2.
Each peak was integrated using NITPIC software. The areas of the peaks are related to the heat exchanged upon binding and/or dilution. This heat was corrected of the heat of dilution (i.e., the average heat of the injections after the equilibrium has reached the saturation). Titration with each peptide was repeated twice.

[2] = Far-UV CD of isolated peptides in aqueous solution (helicity); assay type: physicochemical; conditions: 5 °C, 50 mM phosphate pH 6.8; for molar ellipticity at 222 nm, [Θ]222: far-UV CD; for % Helix in water ([Θ]222): from molar ellipticity at 222 nm assuming 100% helix = −31500 deg cm^2 dmol^−1
Description: Spectra were acquired on a Jasco J815 spectropolarimeter (Jasco, Japan) interfaced with a Peltier unit. The instrument was periodically calibrated with (+) 10-camphorsulphonic acid. Far-UV measurements (in aqueous or TFE solutions) were performed in 0.1-cm-pathlength quartz cells (Hellma), with a response time of 2 s, a band width of 1 nm, data were collected every 0.2 nm, and a scan velocity of 50 nm/min (or 20 nm/min). […] In all peptides, two concentrations (10 μM and 70 μM) in aqueous solutions (50 mM sodium phosphate buffer, pH 6.8 […]) were used to determine whether either the shapes or the intensities of the spectra were concentration-dependent. […] In all cases (aqueous solution or TFE titrations), the corresponding blank solutions (containing only buffer, or buffer and the corresponding amount of TFE) were subtracted from the spectra.
(§1) For the TFE titrations, a peptide concentration of 40 μM was used. The samples were prepared the day before and left overnight at 5 °C to reach equilibrium. The experiments in aqueous solution were acquired at 5 °C, in 50 mM sodium phosphate buffer, pH 6.8. Raw ellipticity was converted to molar ellipiticity, [Θ], from which the percentage of helical populations was determined. Co-solvent concentrations were indicated in percentage of volume. […] Fitting of the titration curves, obtained by observation of the molar ellipticity at 222 nm as the TFE concentration was increased, was carried out with Kaleidagraph (Synergy software).

[3] = TFE titrations monitored by CD (helical population); assay type: physicochemical; conditions: 5 °C, 50 mM phosphate pH 6.8, peptide 40 μM; for [TFE]1/2 (midpoint of TFE titration) / m (m-value of TFE titration): CD at 222 nm, two-state fit, ± fitting error; for % Helix in water (from ΔG in TFE titrations): from ΔG = [TFE]1/2 × m, for 1% values the error was 10%
Description: Unlike the above programs, which make assumptions about how the ellipticity signal relates to secondary structure content, a TFE titration allows the determination of helical content derived from the free-energy change for the equilibrium between folded (in TFE) and unfolded peptide, without any such assumptions.
as §1

[4] = target: T1, human MDM2 (residues 2–125); test: Stopped-flow fluorescence kinetics of p53-peptide binding to MDM2; conditions: 15 °C; for Kd: ratio of kinetic rate constants, assuming two-state binding without intermediates, read-out: Kd (koff/kon); for kon / koff: stopped-flow Trp fluorescence, 50 mM Tris-HCl pH 8.0, 250 mM NaCl, 0.5 mM TCEP, peptide 0.125 μM, ± fitting error; for kon: MDM2 1–3 μM, pseudo-first order, slope, read-out: kon 10^6; for koff: y-axis intercept of pseudo-first-order plot
Description: Expression and purification of human MDM2 (residues 2–125) was carried out as described[23] in BL21 (DE3) cells. […] Protein concentration was determined from the absorbance of its seven Tyr residues.
The kinetics of the MDM2/p53-peptide interaction was measured at 15 °C using an Applied Photophysics stopped-flow fluorimeter in the same buffer as that used in the equilibrium fluorescence experiments. The experimental procedure has been described previously. Association kinetics was measured under pseudo-first order conditions, by keeping the MDM2 concentration in excess of that of the peptide. […] Excitation wavelength was 280 nm with a cut-off filter of 315 nm on the emission side. The slit widths were 10 nm for excitation and emission.
At each MDM2 concentration a minimum of six traces were acquired; and the fitting in all cases for all peptides was carried out with the averaging of at least four traces. The averaged trace was always fitted to a single exponential function, which yielded, kobs. Fitting to a single exponential curve was carried out by using Kaleidagraph (Synergy Software); reported errors in kobs are from the exponential fitting. The dissociation (koff) and association (kon) rate constants were obtained from the straight line: kobs=kon×[MDM2]+koff.
Errors in both rates were from the linear fitting; the errors were always larger for koff due to the extrapolation to the y-axis intercept.

[5] = target: T2, human MDM2 (residues 2–125) (human, UniProt Q00987 2-125); test: ITC; p53 peptide in the syringe titrated into MDM2 in the cell; Auto-iTC200; 15 °C; 50 mM Tris-HCl pH 8.0, 250 mM NaCl, 0.5 mM TCEP; conditions: both partners purified
T2 construct: MDM2 (murine double minute 2), human, N-terminal domain, residues 2-125; no tag is named; also called N-terminal domain of MDM2
T2 sequence (Q00987 2-125): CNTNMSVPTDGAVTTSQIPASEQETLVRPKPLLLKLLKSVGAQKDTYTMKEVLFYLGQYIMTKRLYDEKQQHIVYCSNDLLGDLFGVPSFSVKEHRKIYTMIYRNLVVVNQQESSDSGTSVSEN

T1 sequence (Q00987 2-125): as above

Row | Molecule | TΔS of binding [1] | ΔH of binding [1] | molar ellipticity at 222 nm, [Θ]222 [2] | % Helix in water ([Θ]222) [2] | [TFE]1/2 (midpoint of TFE titration) [3] | m (m-value of TFE titration) [3] | % Helix in water (from ΔG in TFE titrations) [3] | further results
1 | CC(=O)N[C@@H](CCC(=O)O)C(=O)N[C@@H](CC(=O)O)C(=O)N[C@@H](Cc1ccccc1)C(=O)N[C@@H](CC(=O)O)C(=O)N[C@@H](CC(=O)O)C(=O)N[C@@H](CC(C)C)C(=O)N[C@@H](Cc1c[nH]c2ccccc12)C(=O)N[C@@H](CCCCN)C(=O)N[C@@H](CC(C)C)C(=O)N[C@@H](CC(C)C)C(=O)N1CCC[C@H]1C(=O)N[C@@H](CCC(=O)O)C(=O)N[C@@H](CC(N)=O)C(N)=O [P53-D18-D20] | -3.96 kcal/mol | -9.95 kcal/mol | −2811 deg cm^2 dmol^−1 | 9% | 9.8 ± 0.8 % (vol:vol) | 263 ± 47 cal mol^−1(%)^−1 | 1% | –
2 | CC(=O)N[C@@H](CCC(=O)O)C(=O)N[C@@H](CC(=O)O)C(=O)N[C@@H](Cc1ccccc1)C(=O)N[C@@H](CCC(=O)O)C(=O)N[C@@H](CC(=O)O)C(=O)N[C@@H](CC(C)C)C(=O)N[C@@H](Cc1c[nH]c2ccccc12)C(=O)N[C@@H](CCCCN)C(=O)N[C@@H](CC(C)C)C(=O)N[C@@H](CC(C)C)C(=O)N1CCC[C@H]1C(=O)N[C@@H](CCC(=O)O)C(=O)N[C@@H](CC(N)=O)C(N)=O [P53-D18-E20] | -3.03 kcal/mol | -9.90 kcal/mol | −3597 deg cm^2 dmol^−1 | 11.4% | 33 ± 5 % (vol:vol) | 112 ± 70 cal mol^−1(%)^−1 | 1% | Kd [1]: 5.89 µM
3 | CC(=O)N[C@@H](CCC(=O)O)C(=O)N[C@@H](CC(=O)O)C(=O)N[C@@H](Cc1ccccc1)C(=O)N[C@@H](CO)C(=O)N[C@@H](CC(=O)O)C(=O)N[C@@H](CC(C)C)C(=O)N[C@@H](Cc1c[nH]c2ccccc12)C(=O)N[C@@H](CCCCN)C(=O)N[C@@H](CC(C)C)C(=O)N[C@@H](CC(C)C)C(=O)N1CCC[C@H]1C(=O)N[C@@H](CCC(=O)O)C(=O)N[C@@H](CC(N)=O)C(N)=O [P53-D18] | -12.19 kcal/mol | -18.39 kcal/mol | −3313 deg cm^2 dmol^−1 | 10.5% | 12.0 ± 0.7 % (vol:vol) | 383 ± 142 cal mol^−1(%)^−1 | 1% | Kd [4]: 5000 ± 3000 nM; kon [4]: 5e+06 ± 3e+06 M⁻¹ s⁻¹; koff [4]: 23 ± 9 s⁻¹; Kd [1]: 19.1 µM
4 | CC(=O)N[C@@H](CCC(=O)O)C(=O)N[C@H](C(=O)N[C@@H](Cc1ccccc1)C(=O)N[C@@H](CC(=O)O)C(=O)N[C@@H](CC(=O)O)C(=O)N[C@@H](CC(C)C)C(=O)N[C@@H](Cc1c[nH]c2ccccc12)C(=O)N[C@@H](CCCCN)C(=O)N[C@@H](CC(C)C)C(=O)N[C@@H](CC(C)C)C(=O)N1CCC[C@H]1C(=O)N[C@@H](CCC(=O)O)C(=O)N[C@@H](CC(N)=O)C(N)=O)[C@@H](C)O [P53-D20] | – | – | −2811 deg cm^2 dmol^−1 | 9% | – | – | – | Kd [4]: 700 ± 200 nM; kon [4]: 9.5e+06 ± 900000 M⁻¹ s⁻¹; koff [4]: 7 ± 2 s⁻¹
5 | CC(=O)N[C@@H](CCC(=O)O)C(=O)N[C@@H](CCC(=O)O)C(=O)N[C@@H](Cc1ccccc1)C(=O)N[C@@H](CO)C(=O)N[C@@H](CC(=O)O)C(=O)N[C@@H](CC(C)C)C(=O)N[C@@H](Cc1c[nH]c2ccccc12)C(=O)N[C@@H](CCCCN)C(=O)N[C@@H](CC(C)C)C(=O)N[C@@H](CC(C)C)C(=O)N1CCC[C@H]1C(=O)N[C@@H](CCC(=O)O)C(=O)N[C@@H](CC(N)=O)C(N)=O [P53-E18] | -0.26 kcal/mol | -7.02 kcal/mol | −2380 deg cm^2 dmol^−1 | 7.5% | 14 ± 5 % (vol:vol) | 103 ± 42 cal mol^−1(%)^−1 | 7 ± 1% | kon [4]: 3.8e+06 ± 700000 M⁻¹ s⁻¹; koff [4]: 16 ± 2 s⁻¹; Kd [1]: 7.08 µM
6 | CC(=O)N[C@@H](CCC(=O)O)C(=O)N[C@H](C(=O)N[C@@H](Cc1ccccc1)C(=O)N[C@@H](COP(=O)(O)O)C(=O)N[C@@H](CC(=O)O)C(=O)N[C@@H](CC(C)C)C(=O)N[C@@H](Cc1c[nH]c2ccccc12)C(=O)N[C@@H](CCCCN)C(=O)N[C@@H](CC(C)C)C(=O)N[C@@H](CC(C)C)C(=O)N1CCC[C@H]1C(=O)N[C@@H](CCC(=O)O)C(=O)N[C@@H](CC(N)=O)C(N)=O)[C@@H](C)O [P53-pS] | – | – | −4614 deg cm^2 dmol^−1 | 14.6% | – | – | – | –
7 | CC(=O)N[C@@H](CCC(=O)O)C(=O)N[C@H](C(=O)N[C@@H](Cc1ccccc1)C(=O)N[C@@H](COP(=O)(O)O)C(=O)N[C@@H](CC(=O)O)C(=O)N[C@@H](CC(C)C)C(=O)N[C@@H](Cc1c[nH]c2ccccc12)C(=O)N[C@@H](CCCCN)C(=O)N[C@@H](CC(C)C)C(=O)N[C@@H](CC(C)C)C(=O)N1CCC[C@H]1C(=O)N[C@@H](CCC(=O)O)C(=O)N[C@@H](CC(N)=O)C(N)=O)[C@@H](C)OP(=O)(O)O [P53-pTpS] | – | – | −2547 deg cm^2 dmol^−1 | 8.1% | – | – | – | –
8 | Ac-EeFdDLWeeLPEN-NH2 [P53-E18-D20-E24-E25, p53 Glu17-Asn29 peptide with phosphomimetics at Thr18 and Ser20 and Lys24, Leu25 mutated to Glu] | – | – | 142.7 deg cm^2 dmol^−1 | 0% | – | – | – | binding to MDM2 in stopped-flow kinetics ([4]; no exponential behaviour in any trace at any MDM2 concentration tested): did not show any evidence of binding
9 | Ac-EDFSDLWKLLPEN-NH2 [Ac-EdFSDLWKLLPEN-NH2 (P53-D18)] | – | – | – | – | – | – | – | Kd [5]: 19 µM; Log KA [5]: 4.72; dH [5]: -18.4 kcal/mol
10 | Ac-EDFDDLWKLLPEN-NH2 [Ac-EdFdDLWKLLPEN-NH2 (P53-D18-D20)] | – | – | – | – | – | – | – | dH [5]: -9.95 kcal/mol
11 | Ac-EDFEDLWKLLPEN-NH2 [Ac-EdFeDLWKLLPEN-NH2 (P53-D18-E20)] | – | – | – | – | – | – | – | dH [5]: -9.9 kcal/mol
